The source of these data is patent US11952344B2, “Heterocyclic compound and use thereof” (TAKEDA PHARMACEUTICAL COMPANY LIMITED, priority 2019, dated 2024).

For experiment [1], the target named is T1, Human NMDA (NR1/NR2B) Receptor (Homo sapiens, UniProt Q13224).
T1 construct: host or cells: HEK293
Put plainly: NR2B Ca2+ influx assay. It is filed as cell-based. To be noted: 10 μM compound; HEK293 cells expressing GRIN1 and GRIN2B; glutamic acid/glycine-induced Ca2+ influx, Fluo-4 fluorescence; read-out: inhibitory rate (10 μM compound concentration). The gist of the method:
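HEK293 cells stably expressing human GRIN1/GRIN2B were tetracycline-induced for 2 h, loaded with Fluo-4AM and preincubated 15 min at room temperature with compound at 10 μM final. Ca2+ influx was triggered by glutamic acid and glycine and fluorescence (ex 480/em 540 nm) was recorded for 5 min. Inhibition was computed from cumulative fluorescence.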

Experiment [2] concerns the target T2, NMDA receptor containing the NR2B subunit (Rattus norvegicus, UniProt Q00960). Kind of experiment: [3H]MK-801 binding test in vivo (hippocampus). On the set-up: from tissue; host or cells: rat hippocampus (Sprague Dawley); species or system Sprague Dawley rats. Conditions: po, [3H]MK-801 binding inhibitory rate, 1 mg/kg p.o., vehicle = 100% binding, excess MK-801 maleate = 0%. As for the experimental part: Experimental Example 2 [^3H]MK-801 Binding Test In Vivo
In order to confirm “functional antagonistic action on an NMDA receptor containing the NR2B subunit in vivo” which the compound of the present invention has, binding test was performed using tritium-labeled form of MK-801 ((5R,10S)-5-methyl-10,11-dihydro-5H-5,10-epiminodibenzo[a,d][7]annulene) ([^3H]MK-801), which is a compound capable of binding to the opening site of the NMDA receptor.
The example compound (1 mg/kg/2 mL, 0.5% MC water) or vehicle ([…], 0.5% MC water) was orally administered (p.o.) to Sprague Dawley rats (body weight 180-260 g). After a certain time (around after time-to maximum blood concentration), [^3H]MK-801 (20 μCi/kg/mL, Muromachi Kikai) was intravenously administered. After 10 min, the rats were euthanized by decapitation, and subjected to craniotomy, and the hippocampus was collected. The collected hippocampus was homogenized in 30 volumes (30 mL per 1 g tissue) ice-cooled 20 mM Hepes (pH7.5, Hampton Research) using a homogenizer (T10 basic Ultra-Turrax) for […]. […] The filter was washed four times with ice-cooled saline (5 mL, Otsuka Pharmaceutical), put into a scintillation vial, and then 10 mL of liquid scintillator A (FUJIFILM Wako Pure Chemical Corporation) was added thereto, and the residual radioactivity was counted using liquid scintillation counter (ALOKA LSC-6100). Separately, the residual radioactivity in 100 μL of the homogenate before the filtration was counted in the same way. The value of [the residual radioactivity in the filter/the residual radioactivity in the 100 μL of the homogenate] was calculated as a [^3H]MK-801 binding rate to the NMDA receptor expressing in each individual hippocampus tissue. […] The difference between the percentage of [^3H]MK-801 binding rate in the group orally administered with the example compound and that in the vehicle control group (100%) was analyzed as [^3H]MK-801 binding inhibitory rate by the example compound.

The subject of experiment [3] is NMDA receptor. Conditions: single intravenous administration; major depression and bipolar disorder; cited from earlier work.
Experiment [4] deals with NMDA receptor. To be noted: in vivo; cited from earlier work.
Experiment [5] addresses T2, NMDA receptor containing the NR2B subunit. Conditions: rodents; cited from earlier work.
The target in experiment [6] is T3, NMDA receptor containing the NR2B subunit (Homo sapiens, UniProt Q13224). Conditions: continuous intravenous administration; cited from earlier work.
T3 sequence (Q13224 27-1484, other chains not shown): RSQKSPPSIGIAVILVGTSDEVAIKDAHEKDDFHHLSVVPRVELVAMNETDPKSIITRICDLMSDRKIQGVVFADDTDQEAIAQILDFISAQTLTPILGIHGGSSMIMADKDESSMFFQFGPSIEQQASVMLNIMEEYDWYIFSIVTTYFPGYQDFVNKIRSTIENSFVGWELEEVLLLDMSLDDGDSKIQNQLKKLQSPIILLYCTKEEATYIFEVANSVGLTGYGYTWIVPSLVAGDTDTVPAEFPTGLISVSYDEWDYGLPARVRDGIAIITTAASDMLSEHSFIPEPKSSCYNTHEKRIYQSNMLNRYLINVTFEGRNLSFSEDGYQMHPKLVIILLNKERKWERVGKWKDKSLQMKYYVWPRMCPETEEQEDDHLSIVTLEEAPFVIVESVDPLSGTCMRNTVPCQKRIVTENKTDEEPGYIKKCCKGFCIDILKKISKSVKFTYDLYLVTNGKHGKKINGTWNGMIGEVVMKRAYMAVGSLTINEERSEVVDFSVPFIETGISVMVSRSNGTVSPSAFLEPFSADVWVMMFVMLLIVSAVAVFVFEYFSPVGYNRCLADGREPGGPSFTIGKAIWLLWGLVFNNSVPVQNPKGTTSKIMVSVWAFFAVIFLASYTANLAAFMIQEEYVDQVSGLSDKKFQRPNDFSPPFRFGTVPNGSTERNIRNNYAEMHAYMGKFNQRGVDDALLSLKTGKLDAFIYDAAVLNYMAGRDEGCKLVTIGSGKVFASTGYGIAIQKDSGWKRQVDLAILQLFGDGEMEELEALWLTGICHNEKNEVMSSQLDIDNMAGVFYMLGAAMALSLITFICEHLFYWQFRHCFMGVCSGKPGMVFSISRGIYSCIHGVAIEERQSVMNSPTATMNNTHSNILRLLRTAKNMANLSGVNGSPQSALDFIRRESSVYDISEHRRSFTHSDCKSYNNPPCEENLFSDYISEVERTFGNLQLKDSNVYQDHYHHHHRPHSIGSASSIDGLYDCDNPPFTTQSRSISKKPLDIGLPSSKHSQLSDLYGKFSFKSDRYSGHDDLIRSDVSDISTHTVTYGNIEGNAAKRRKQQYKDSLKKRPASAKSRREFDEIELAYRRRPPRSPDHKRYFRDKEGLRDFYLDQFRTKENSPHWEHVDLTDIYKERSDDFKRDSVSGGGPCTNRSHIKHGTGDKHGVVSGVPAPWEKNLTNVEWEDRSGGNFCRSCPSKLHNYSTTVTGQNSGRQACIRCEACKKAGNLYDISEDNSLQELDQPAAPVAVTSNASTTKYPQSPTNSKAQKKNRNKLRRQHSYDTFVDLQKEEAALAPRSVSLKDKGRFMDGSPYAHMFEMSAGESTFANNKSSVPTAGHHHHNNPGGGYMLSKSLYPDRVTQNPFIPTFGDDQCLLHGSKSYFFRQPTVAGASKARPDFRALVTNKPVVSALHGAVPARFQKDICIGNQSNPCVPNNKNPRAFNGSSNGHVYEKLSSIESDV
In experiment [7] the target is T3, NMDA receptor containing the NR2B subunit. To be noted: in vivo; cited from earlier work.

T2 sequence (Q00960 27-1482, other chains not shown): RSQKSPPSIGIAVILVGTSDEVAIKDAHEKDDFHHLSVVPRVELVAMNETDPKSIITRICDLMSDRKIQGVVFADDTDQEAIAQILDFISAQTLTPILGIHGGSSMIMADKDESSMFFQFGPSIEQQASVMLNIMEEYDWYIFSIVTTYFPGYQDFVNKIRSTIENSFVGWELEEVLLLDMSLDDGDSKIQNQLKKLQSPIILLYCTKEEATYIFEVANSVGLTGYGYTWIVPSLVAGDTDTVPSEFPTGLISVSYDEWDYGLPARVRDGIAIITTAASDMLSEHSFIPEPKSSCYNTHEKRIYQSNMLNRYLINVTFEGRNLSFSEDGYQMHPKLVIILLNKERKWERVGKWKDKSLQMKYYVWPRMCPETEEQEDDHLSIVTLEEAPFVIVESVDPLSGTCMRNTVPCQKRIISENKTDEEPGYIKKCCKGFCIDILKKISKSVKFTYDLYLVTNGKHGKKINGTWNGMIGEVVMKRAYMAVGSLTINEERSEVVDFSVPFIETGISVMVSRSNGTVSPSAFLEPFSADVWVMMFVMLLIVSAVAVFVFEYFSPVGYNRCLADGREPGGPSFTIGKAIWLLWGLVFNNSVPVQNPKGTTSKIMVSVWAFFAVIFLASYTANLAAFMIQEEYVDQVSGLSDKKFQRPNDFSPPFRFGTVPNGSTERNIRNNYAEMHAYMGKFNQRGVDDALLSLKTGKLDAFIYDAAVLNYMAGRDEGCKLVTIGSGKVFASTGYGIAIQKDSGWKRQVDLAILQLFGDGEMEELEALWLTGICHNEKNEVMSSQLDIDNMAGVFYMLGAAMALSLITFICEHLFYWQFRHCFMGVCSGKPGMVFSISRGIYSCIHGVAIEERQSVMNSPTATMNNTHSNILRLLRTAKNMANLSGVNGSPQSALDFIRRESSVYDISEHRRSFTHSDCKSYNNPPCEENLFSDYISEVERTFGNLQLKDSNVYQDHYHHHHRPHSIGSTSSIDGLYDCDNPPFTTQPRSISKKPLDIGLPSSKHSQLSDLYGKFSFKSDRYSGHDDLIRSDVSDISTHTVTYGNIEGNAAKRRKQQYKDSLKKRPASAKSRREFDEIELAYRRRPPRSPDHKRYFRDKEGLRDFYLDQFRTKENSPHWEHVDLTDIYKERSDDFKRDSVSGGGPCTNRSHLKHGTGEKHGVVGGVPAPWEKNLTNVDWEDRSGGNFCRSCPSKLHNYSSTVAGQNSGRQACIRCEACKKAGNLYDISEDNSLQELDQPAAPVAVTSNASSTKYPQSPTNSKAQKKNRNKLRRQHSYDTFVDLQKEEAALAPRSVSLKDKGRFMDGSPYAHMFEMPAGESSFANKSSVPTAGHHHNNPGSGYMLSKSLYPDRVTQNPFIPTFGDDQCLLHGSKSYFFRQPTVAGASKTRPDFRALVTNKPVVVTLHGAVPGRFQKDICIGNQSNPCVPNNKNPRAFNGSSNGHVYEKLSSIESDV
T1 sequence (Q13224 27-1484, other chains not shown): as the sequence (Q13224 27-1484, other chains not shown) above

As for `COc1ncncc1CNC(=O)c1cnc(OC(F)F)c(F)c1` [Example 12, 6-(difluoromethoxy)-5-fluoro-N-[(4-methoxypyrimidin-5-yl)methyl]pyridine-3-carboxamide], the inhibition at 10 µM in experiment [1] was 92%. In experiment [2], this compound gave an inhibition at 1 mg/kg of 23%.

As to `CNC1(c2ccccc2Cl)CCCCC1=O` (centres unmarked) [ketamine], in experiment [3], the “improvement of depression symptom” value is “improves depression symptom accompanying major depression and bipolar disorder rapidly and in a sustained manner”.

Turning to `COc1ncncc1CNC(=O)c1cc(F)c(OC(F)F)c(F)c1` [Example 63, 4-(difluoromethoxy)-3,5-difluoro-N-[(4-methoxypyrimidin-5-yl)methyl]benzamide], in experiment [1], the inhibition at 10 µM is 90%. The compound further had an inhibition at 1 mg/kg in experiment [2] of 10%.

With `CC12CC3CC(C)(C1)CC(N)(C3)C2` [memantine], in experiment [4], the “improvement of peripheral symptoms of dementia” value is “partially improves peripheral symptoms of dementia”.

On to `COc1cncc(CNC(=O)c2cnc(OC(F)F)c(F)c2)c1` [Example 42, 6-(difluoromethoxy)-5-fluoro-N-[(5-methoxypyridin-3-yl)methyl]pyridine-3-carboxamide], for which the inhibition at 10 µM in experiment [1] was 94%. The compound also came in with an inhibition at 1 mg/kg in experiment [2] of 14%.

As to `C[C@@H](CN1CCC(Cc2ccccc2)CC1)[C@@H](O)c1ccc(O)cc1` [Ro25-6981], the “number of occurrence and depth of cortical spreading depression” value in experiment [5] is “suppress the number of occurrence and the depth of cortical spreading depression”.

As to `C[C@@H]([C@@H](O)c1ccc(O)cc1)N1CCC(O)(c2ccccc2)CC1` [CP-101, 606], the “improvement of treatment resistant-depression symptom” value in experiment [6] is on record as “significantly improves treatment resistant-depression symptom”. The “number of occurrence and depth of cortical spreading depression” value in experiment [5] is “suppress the number of occurrence and the depth of cortical spreading depression”.

Turning to `Cc1c(F)cncc1CNC(=O)c1cnc(OC(F)F)c(Cl)c1` [Example 73, 5-chloro-6-(difluoromethoxy)-N-[(5-fluoro-4-methylpyridin-3-yl)methyl]pyridine-3-carboxamide], the inhibition at 10 µM in experiment [1] was determined as 93%.

As to `CC(C(O)c1ccc(O)cc1)N1CCC(Cc2ccccc2)CC1` (centres unmarked) [Ifenprodil], in experiment [7], the pain sense threshold result was “the pain sense threshold increases”.

Take `CC(F)(F)c1ccncc1CNC(=O)c1cnc(OC(F)F)c(F)c1` [Example 43, N-{[4-(1,1-difluoroethyl)pyridin-3-yl]methyl}-6-(difluoromethoxy)-5-fluoropyridine-3-carboxamide]: the inhibition at 10 µM in experiment [1] was 90%.

For `COc1c(F)cncc1CNC(=O)c1cnc(OC(F)F)c(F)c1` [Example 6, 6-(difluoromethoxy)-5-fluoro-N-[(5-fluoro-4-methoxypyridin-3-yl)methyl]pyridine-3-carboxamide], the inhibition at 10 µM in experiment [1] was 95%.

In the case of `O=C(NCc1cnccc1OC1CC1)c1cnc(OC(F)F)c(F)c1` [Example 14, N-{[4-(cyclopropyloxy)-pyridin-3-yl]methyl}-6-(difluoromethoxy)-5-fluoropyridine-3-carboxamide], the inhibition at 10 µM in experiment [1] was 96%.

Consider `Cc1ccncc1CNC(=O)c1cnc(C2CC2(F)F)c(F)c1` (centres unmarked) [Example 101, 6-(2,2-difluorocyclopropyl)-5-fluoro-N-[(4-methylpyridin-3-yl)methyl]pyridine-3-carboxamide], for which the inhibition at 10 µM in experiment [1] amounted to 90%.

For the compound `COc1ncncc1CNC(=O)c1cc(F)c(OC)c(F)c1` [Example 62, 3,5-difluoro-4-methoxy-N-[(4-methoxypyrimidin-5-yl)methyl]benzamide], the inhibition at 10 µM in experiment [1] stood at 87%.

Turning to `Cc1ccncc1CNC(=O)c1cnc(C(C)(F)F)c(Cl)c1` [Example 97, 5-chloro-6-(1,1-difluoroethyl)-N-[(4-methylpyridin-3-yl)methyl]pyridine-3-carboxamide], the inhibition at 10 µM in experiment [1] was determined as 92%.

On to `Cc1c(F)cncc1CNC(=O)c1cnc(OC(F)F)c(F)c1` [Example 40, 6-(difluoromethoxy)-5-fluoro-N-[(5-fluoro-4-methylpyridin-3-yl)methyl]pyridine-3-carboxamide], for which the inhibition at 10 µM in experiment [1] was determined as 96%.

Turning to `COc1ccc(C(=O)NCc2cnccc2C)cc1F` [Example 60, 3-fluoro-4-methoxy-N-[(4-methylpyridin-3-yl)methyl]benzamide], the inhibition at 10 µM in experiment [1] is 88%.

With `CC(F)(F)c1ncc(C(=O)NCc2cncnc2OC2CC2)cc1Cl` [Example 95, 5-chloro-N-{[4-(cyclopropyloxy)pyrimidin-5-yl]methyl}-6-(1,1-difluoroethyl)pyridine-3-carboxamide], the inhibition at 10 µM in experiment [1] was determined as 90%.

On to `Cc1c(F)cncc1CNC(=O)c1ccc(OC(F)F)c(F)c1` [Example 69, 4-(difiuoromethoxy)-3-fluoro-N-[(5-fluoro-4-methylpyridin-3-yl)methyl]benzamide], for which the inhibition at 10 µM in experiment [1] amounted to 94%.
